Results from PMC12703428, “Development of Granzyme A Turn‐ON Fluorescent Activity‐Based Probes” (Chembiochem, 2025).
Square brackets hold non-standard residues; d marks the D form. Ends that are not written are not given here. Oic = O=C(O)[C@@H]1C[C@@H]2CCCC[C@@H]2N1; Tic = O=C(O)[C@@H]1Cc2ccccc2CN1

Molecular target: T1, mouse GzmA (mGzmA) (Mus musculus, UniProt P11032)
T1 construct: CSB-EP010081MO for active, mature form; purchased Cusabio CSB-EP010081MO
T1 sequence (P11032 29-260): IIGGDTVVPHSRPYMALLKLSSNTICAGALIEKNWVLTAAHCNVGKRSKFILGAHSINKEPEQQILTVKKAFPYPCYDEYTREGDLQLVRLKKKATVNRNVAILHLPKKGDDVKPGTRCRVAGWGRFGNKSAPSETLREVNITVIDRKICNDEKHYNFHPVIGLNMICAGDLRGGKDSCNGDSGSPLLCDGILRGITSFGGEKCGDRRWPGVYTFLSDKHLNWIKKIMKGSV
Test: In-gel fluorescence labeling of mGzmA
Assay type: biochemical
Conditions: mGzmA 1 μM, 24 h, 37 °C; for Labeling of mGzmA (in-gel Cy5 fluorescence): probe 200 nM or 1 μM
Procedure: Figure 3 GzmA ABPs covalently and competitively label active human and mouse GzmA. […] Recombinant hGzmA (100 nM) was incubated with varying concentrations of each ABP at 37 °C. B) Competitive labeling of hGzmA. Recombinant hGzmA (100 nM) was preincubated with covalent inhibitors 1 or 2 (5 μM) for 2 h, followed by labeling with ABPs 3 –5 (50 nM) for 2 h at 37 °C. Note: Pro‐form of hGzmA (the first lane) is not effectively stained by SYPRO‐Ruby. C) Structure of qABP 6. D) Quenched natures of 5 and 6. […] F) Labeling of mGzmA (1 μM) with 5 and 6 (1 μM, 24 h, 37 °C). Protein samples were analyzed by SDS‐PAGE and in‐gel fluorescence scanning for Cy5 signal and SYPRO Ruby staining.
Sulfo-Cy5 N N P O 1 µM 100 nM
7 HN NH2 In-gel fluorescence: […]
mGzmA In-gel fluorescence: mGzmA In-gel fluorescence:
Supplementary Figure 1. (A) Chemical structure of qABP 7. (B) Labeling of mGzmA (1 µM, 24 h, 37 °C) and hGzmA (100 nM, 2 h, 37 °C) by 1 µM or 100 nM of 5, 6, and 7, respectively. (C) Labeling of mGzmA (1 µM, 24 h, 37 °C) by 200 nM of 5, 6, and 7. […] Protein samples were analyzed by SDS-PAGE and in-gel fluorescence scanning for Cy5 signal. […]
Briefly, hGzmA (50 nM) was incubated with either inhibitor 1 or 2 (200 nM), and GzmA fluorogenic substrate […] (100 µM) in 50 mM Tris, 150 mM NaCl, 0.01% Triton X-100 (pH 8) for 15 hr at 37 °C. Recorded fluorescence at Ex/Em: 380/460 nm for residual GzmA […]
Cat. No. CRL-2570) and 4T1 (ATCC Cat. No. CRL-2539) cells were cultured in RPMI supplemented with 10% fetal bovine serum (FBS), 1% penicillin/streptomycin (PS), and 2 mM L-glutamine, while HEK293T and MDA-MB-231 cells (ATCC Cat. No. HTB-26) were cultured in DMEM supplemented likewise as described above. […] The supernatant was collected, and protein concentration was measured using a Pierce BCA protein assay. […]
C. In-gel fluorescence imaging […]
Conditions for probe/inhibitor treatment for in-gel fluorescence analysis: Inhibitors and probes were incubated with active (or pro-) GzmA followed by treatment with 4X SDS reducing sample buffer. […]

Substance	Labeling of mGzmA (in-gel Cy5 fluorescence)	Concentration dependence of labeling of mGzmA (probe 1, 0.5, 0.2 µM, in-gel fluorescence)
GFFR [compound 7]	lower labeling efficiency for both hGzmA and mGzmA compared with probes 5 and 6	
[Tic]G[Oic]R [compound 6]	efficiently (and slightly more strongly than 5) labeled	concentration‐dependent labeling of mGzmA
